# Values quoted from earlier work as cited in EP3581172B1, “A PHARMACEUTICAL COMPOSITION WITH ENHANCED BIOAVAILABILITY CONTAINING A MEDICAL HERBAL EXTRACT” (TFLL Pharmaceutical Food Supplements and Cosmetic Products …, priority 2018, dated 2019).
# Like-named read-outs stand apart in the source and are kept apart here.
# Legend:
# [1] = test system: colon cancer stimulated by 1,2-dimethylhydrazine (DMH)
# breast cancer = conditions: topical curcumin ointment; 7 breast cancer patients
# [2] = test system: esophageal carcinogenesis; conditions: rats, by diet (500 ppm)
# adenoma = conditions: rats
structure (smiles),measurement,setting,value
"COc1cc(CCC(=O)CC(=O)CCc2ccc(O)c(OC)c2)ccc1O [THC, tetrahydrokurkuminin]",effect on upper and lower half sections of colon crypts,[1],significant decrease
"COc1cc(/C=C/C(=O)CC(=O)/C=C/c2ccc(O)c(OC)c2)ccc1O [curcumin, (1E,6E)-1,7-bis (4-hydroxy-3-methoxyphenyl)-1,6-heptadiene-3,5-dione]","positive responses (significant reduction in lesion size, pain, itching and leaks), share of patients",breast cancer,71%
same,esophageal carcinogenesis inhibited,[2]; maintenance dose,33%
same,esophageal carcinogenesis inhibited,[2]; onset dose,27%
same,decrease in adenoma,adenoma; by diet 0.2% for 15 weeks,39%
same,decrease in adenoma,adenoma; by diet 0.5% for 15 weeks,40%
same,water solubility,,almost negligible
COc1ccc(/C=C/C(=O)CC(=O)/C=C/c2ccc(OC)c(OC)c2)cc1OC [dimethoxycurcumin],"reducing proliferation and stimulating apoptosis, compared to curcumin",HCT116 cells,more effective
